Test results as given in US8853215B2, “Derivatives of N-acyl-N′-phenylpiperazine useful (inter alia) for the prophylaxis or treatment of diabetes” (Takeda Pharmaceutical Company Limited, priority 2009, dated 2014).

Columns and labels:
RBP4 = RBP4 (Rattus norvegicus (Rat), UniProt P04916); assay: Single administration test in Wistar fatty rats, plasma RBP4 by ELISA; format: in vivo; conditions: male Wistar fatty rats, 10 mg/kg oral single dose, mean±SD
Experimental: The action of the compounds of the present invention to lower plasma RBP4 level was evaluated using the animal model shown below.
(§1) Male Wistar fatty rats (fa/fa) were bred in Takeda Pharmaceutical Company Limited and maintained on normal diet (CE2, CLAE Japan, Inc.) and tap water. Animals were housed in a temperature-controlled room adjusted to a 12-hour light/12-hour dark cycle beginning at 7:00 and 19:00, respectively. All procedures were conducted according to the experimental animal care use committee of Takeda Pharmaceutical Company.
Male 13-43-week-old Wistar fatty rats were divided into groups randomly. Compounds were suspended in 0.5% (w/v) methylcellulose in water and given orally to Wistar fatty rats at a dose of 10 mg/10 mL/kg of body weight (3-5 rats per group). Blood samples were obtained from tail vein with sodium heparin as an anticoagulant at time 0 hr (just before the administration), 4 hr, 7 hr, and 24 hr after the administration, followed by plasma separation by centrifugation. Plasma RBP4 levels were measured by enzyme-linked immunosorbent assay described in the following section.
Plasma samples were analyzed in duplicate for RBP4 by an enzyme-linked immunosorbent assay. Mouse recombinant RBP4 (Takeda Pharmaceutical Company Limited) was used as standards, and the assay range was 0.313-20 ng/ml. Samples were diluted 10,000-fold with phosphate-buffered saline (PBS) (Sigma) containing 10% (w/v) BlockAce (Dainippon Sumitomo Pharma Co., Ltd). Rabbit anti-RBP4 polyclonal antibody (100 μL/well of 50 μg/mL, Hokudo Co, Ltd) was incubated in a 96-well plate (Nalge Nunc International K.K.) for overnight at 4° C. Subsequently, the plates were washed with PBS-T (Wako Pure Chemical Industries, Ltd.) and blocked with PBS containing 25% BlockAce for 1 hr at room temperature. After another washing with PBS-T, samples and standards were applied to the well, and the plates were incubated for 2 hr at room temperature. After a washing the wells, peroxidase-labeled (Dojindo Laboratories) anti-RBP4 (100 μL/well) was added to the wells, and then the plates were incubated for 1 hr at room temperature. After a final washing with PBS-T, substrate solution 3,3,5,5-tetramethylbenzidine (Sigma) was added to the wells, and the plates were placed in the dark for 5-20 min at room temperature. The reaction was stopped with 0.5 M sulphuric acid and the optical density was measured with a spectrophotometer at 450 nm. The changes in plasma RBP4 levels were expressed as % of initial/Control. All data are presented as mean±SD.

human RBP4 = human RBP4 (Homo sapiens (Human), UniProt P02753); assay: Binding assay by Retinol-RBP4-TTR ELISA; conditions: at 10 μM compound; read-out: human RBP4 binding inhibitory activity(% at 10 μM)
In short: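 Biotinylated human TTR was captured on streptavidin plates, then His-tagged human RBP4 was added with compound premixed with 50 nM retinol (8 doses). Binding ran 2 h at room temperature in 50 mM Tris-HCl, 150 mM NaCl, 0.005% Tween 20, 1 mM DTT, 0.1% BSA, read by luminescence. Inhibition was scaled between retinol+DMSO and retinol-free controls, and IC50 fitted.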

CD (SD) rats = assay: Repeated drug administration test in CD (SD) rats, retinol in plasma and retina by HPLC; format: in vivo
Experimental: The effect of the compound on retinol level in retina was evaluated using the animal model shown below.
as §1, with “CD (SD)” for “Wistar fatty”, “rats” for “rats (fa/fa)”, “purchased from Charles River (Japan)” for “bred in Takeda Pharmaceutical Company Limited”, “(CR-LPF) (Oriental Yeast Co., Ltd.)” for “(CE2, CLAE Japan, Inc.)”
A compound was suspended in 0.5% (w/v) methylcellulose in water and given orally to rats at a volume of 10 mL/kg of body weight. Drug administration was started at 6 weeks of age and a drug (10 mg/kg) was administered once a day for 14 days. After repeated administration, blood samples were obtained from tail vein. Rats were dissected under anesthesia with ethyl ether and eyes were isolated.
Retina was isolated from the eye of the rats mentioned 5B with stereoscopic microscope and sonicated. Retinol was extracted into n-hexane and samples were taken to dryness under nitrogen gas. Samples residues were resuspended into 2-propanol and analyzed by HPLC. Chromatographic separations were achieved on TSKgel ODS120T Column (4.6×250 mm) (Tosoh) using Alliance series reverse phase HPLC (Waters). The mobile phase contained acetonitrile/methanol (3/1) at 4° C. and detected at UV 325 nm. Retinol in retina was corrected by total protein detected by BCA protein assay (Pierce).

SMILES: O=C(O)CCc1nc(-c2cc(C(F)(F)F)cc(C(F)(F)F)c2)co1 [Reference Example 26, 3-{4-[3,5-bis(trifluoromethyl)phenyl]-1,3-oxazol-2-yl}propanoic acid, reference compound]
- RBP4 (% of initial/Control) 0 hr (RBP4; 0 hr (just before the administration)): 100 ± 22.9 % of initial/Control
- RBP4 (% of initial/Control) 4 hr (RBP4; 4 hr after administration): 34.7 ± 13.7 % of initial/Control
- RBP4 (% of initial/Control) 7 hr (RBP4; 7 hr after administration): 24.9 ± 10.6 % of initial/Control
- RBP4 (% of initial/Control) 24 hr (RBP4; 24 hr after administration): 9.2 ± 6.1 % of initial/Control
- inhibition at 10 µM (human RBP4): 100%
- effect on retinol in plasma and retina (in words) (CD (SD) rats; CD (SD) rats, 10 mg/kg, 14 days repeated administration): decreased retinol in plasma and retina significantly
- Retinol in retina (CD (SD) rats; male CD (SD) rats, 10 mg/kg oral once a day for 14 days, corrected by total protein, mean±SD): 0.06 ± 0.01 µg/mg
- Retinol in plasma (μg/mL) (CD (SD) rats; male CD (SD) rats, 10 mg/kg oral once a day for 14 days, mean±SD): Not detected
